What was measured:
growth of cartilage = details: in vivo; cited from earlier work
[1] = test system: children with Osteogenesis Imperfecta; assay: Continuous disodium pamidronate treatment of children with Osteogenesis Imperfecta (absorptiometry, biochemical markers, quantitative computerized tomography of the tibia); assay type: in vivo, human
Procedure: The doses were adjusted to the patient's condition with a mean of 3.5 mg/Kg of body weight/day by oral administration, or 20 mg per dose, every 3-6 months, by intravenous administration in one of the cases.
The latter can be attributed to the scarce development of inertia due to the internal osseous lack of resorption in the diaphysis. In FIG. 2 it can be observed that in children with normal development, there exists a range of cortical mineralization which contributes to the diaphysial stability (resistance to deformation). This range is of approximately 1020-1100 mg/cm3.
The administration period of bisphosphonates was 2-4.5 years, indicating the existence of a wide interindividual variability in order to obtain the “mineralizing” effect and the inconvenience of adopting fixed periods of treatments.

Row | Compound | effect on the growth of cartilage (growth of cartilage) | cortical mineralization range reached (cortical mineral density of the tibia, vDMO) ([1]; FIG. 2, range of normal children that contributes to diaphysial stability, reached by treated OI children) | osseous metabolic turnover (biochemical markers of osseous resorption and formation) ([1]; OI type III/IV children, continuous scheme 2.5-4 years, mean 3.5 mg/Kg/day oral or 20 mg i.v. every 3-6 months, urinary hydroxyproline/creatinine, serum alkaline phosphatase, osteocalcine) | total apparent mineral density of the lumbar vertebrae and the neck of the femur ([1]; osseous absorptiometries, continuous scheme 2.5-4 years)
1 | CN(C)CCC(O)(P(=O)(O)O)P(=O)(O)O [olpadronate] | not to affect the growth of cartilage |  |  | 
2 | NCCC(O)(P(=O)(O)O)P(=O)(O)O [pamidronate, disodium pamidronate] |  | 1020-1100 mg/cm3 | reduction of the osseous metabolic turnover | progressive improvement
